Measurements taken from the supplement of paper PMC11061612.

Experiments:
Experiment in all cases: combination Emax (second highest fraction inhibited in the dose matrix, 72 h); higher = more inhibition; extreme values may be limits of the assay
42-MG-BA (Glioblastoma) = test system: 42-MG-BA (Glioblastoma)
Procedure, shortened: (§1)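 Cell lines in DMEM/F12 or RPMI with 10% FBS were plated in 1536-well plates, held 24 hours at 37°C, 5% CO2, then given two-drug dose matrices for 72 hours (DMSO typically 0.2%). Viability was read by CellTiter-Glo 2.0 luminescence and scaled as inhibition from 0 (vehicle wells) to 1 (blank wells). Combination Emax is the second-highest inhibition in the matrix; Bliss excess is observed combination effect minus expected EA + EB − EA·EB, EA and EB being single-agent effects.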

[1] = test system: CCRF-CEM (T-Lymphoblastic Leukemia)
Procedure, shortened: as §1

[2] = test system: COLO-205 (Colorectal Carcinoma)
Procedure, shortened: as §1

[3] = test system: Calu-3 (Lung Adenocarcinoma)
Procedure, shortened: as §1

[4] = test system: Daoy (Other Solid Carcinomas)
Procedure, shortened: as §1

[5] = test system: DoTc2-4510 (Cervical Carcinoma)
Procedure, shortened: as §1

ES4 (Ewing's Sarcoma) = test system: ES4 (Ewing's Sarcoma)
Procedure, shortened: as §1

[6] = test system: HCC-78 (Lung Adenocarcinoma)
Procedure, shortened: as §1

[7] = test system: HCC1806 (Breast Carcinoma)
Procedure, shortened: as §1

[8] = test system: KP-1N (Pancreatic Carcinoma)
Procedure, shortened: as §1

[9] = test system: LU-135 (Small Cell Lung Carcinoma)
Procedure, shortened: as §1

[10] = test system: ME-1 (Acute Myeloid Leukemia)
Procedure, shortened: as §1

NB10 (Neuroblastoma) = test system: NB10 (Neuroblastoma)
Procedure, shortened: as §1

[11] = test system: NCI-H2085 (Non-Small Cell Lung Carcinoma)
Procedure, shortened: as §1

[12] = test system: Ramos-2G6-4C10 (Burkitt's Lymphoma)
Procedure, shortened: as §1

T98G (Glioblastoma) = test system: T98G (Glioblastoma)
Procedure, shortened: as §1

[13] = test system: TCCSUP (Bladder Carcinoma)
Procedure, shortened: as §1

[14] = test system: TE-15 (Esophageal Squamous Cell Carcinoma)
Procedure, shortened: as §1

[15] = test system: TE-9 (Esophageal Squamous Cell Carcinoma)
Procedure, shortened: as §1

Structure (SMILES)	combination Emax (42-MG-BA (Glioblastoma))	combination Emax [1]	combination Emax [2]	combination Emax [3]	combination Emax [4]	combination Emax [5]	combination Emax (ES4 (Ewing's Sarcoma))	combination Emax [6]	combination Emax [7]	combination Emax [8]	combination Emax [9]	combination Emax [10]	combination Emax (NB10 (Neuroblastoma))	combination Emax [11]	combination Emax [12]	combination Emax (T98G (Glioblastoma))	combination Emax [13]	combination Emax [14]	combination Emax [15]
CN(C)CCCOc1ccc(-c2ccc3ncc4c(c3c2)n(C2CCOCC2)c(=O)n4C)cn1 [AZD0156] + C=CCn1c(=O)c2cnc(Nc3ccc(N4CCN(C)CC4)cc3)nc2n1-c1cccc(C(C)(C)O)n1 [AZD1775] (first compound max 1 µM, partner max 1 µM)	0.29	1	0.341	0.0731	0.847	0.473	0.438	0.313	0.901	0.471	0.644	0.413	0.586	0.6	0.995	0.657	0.356	0.454	0.231
CN(C)CCCOc1ccc(-c2ccc3ncc4c(c3c2)n(C2CCOCC2)c(=O)n4C)cn1 [AZD0156] + CCN(CCO)CCCOc1ccc2c(Nc3cc(CC(=O)Nc4cccc(F)c4)[nH]n3)ncnc2c1 [AZD2811] (first compound max 1 µM, 7x7, partner max 1 µM)	0.444	0.983	0.854	0.061	0.303	0.186	0.159	0.159	0.124	0.293	0.925	0.2	0.315	0.547	0.528	0.33	0.111	0.0454	0.0784
CN(C)CCCOc1ccc(-c2ccc3ncc4c(c3c2)n(C2CCOCC2)c(=O)n4C)cn1 [AZD0156] + C[C@@H]1COCCN1C2=NC(=NC(=C2)C3(CC3)[S@](=N)(=O)C)C4=C5C=CNC5=NC=C4 [AZD6738] (first compound max 1 µM, 7x7, partner max 10 µM)	0.701	0.99	0.247	0.297	0.848	0.811	0.844	0.613	0.937	0.399	0.599	0.394	0.87	0.824	0.981	0.855	0.591	0.734	0.354
C=CCn1c(=O)c2cnc(Nc3ccc(N4CCN(C)CC4)cc3)nc2n1-c1cccc(C(C)(C)O)n1 [AZD1775] + C[C@@H]1COCCN1C2=NC(=NC(=C2)C3(CC3)[S@](=N)(=O)C)C4=C5C=CNC5=NC=C4 [AZD6738] (first compound max 1 µM, partner max 10 µM)	0.763	1	0.863	0.301	0.944	0.751	0.826	0.756	0.961	0.397	0.751	0.51	0.879	0.912	1	0.873	0.755	0.761	0.67
C=CCn1c(=O)c2cnc(Nc3ccc(N4CCN(C)CC4)cc3)nc2n1-c1cccc(C(C)(C)O)n1 [AZD1775] + O=C(c1cc(Cc2n[nH]c(=O)c3ccccc23)ccc1F)N1CCN(C(=O)C2CC2)CC1 [Olaparib] (first compound max 1 µM, partner max 10 µM)	0.278	1	0.336	0.173	0.882	0.458	0.563	0.377	0.836	0.359	0.642	0.455	0.682	0.566	1	0.675	0.461	0.382	0.307
CCN(CCO)CCCOc1ccc2c(Nc3cc(CC(=O)Nc4cccc(F)c4)[nH]n3)ncnc2c1 [AZD2811] + C=CCn1c(=O)c2cnc(Nc3ccc(N4CCN(C)CC4)cc3)nc2n1-c1cccc(C(C)(C)O)n1 [AZD1775] (first compound max 1 µM, partner max 1 µM)	0.522	1	0.854	0.0931	0.827	0.534	0.377	0.327	0.867	0.401	0.921	0.299	0.466	0.688	0.957	0.608	0.352	0.496	0.207
CCN(CCO)CCCOc1ccc2c(Nc3cc(CC(=O)Nc4cccc(F)c4)[nH]n3)ncnc2c1 [AZD2811] + C[C@@H]1COCCN1C2=NC(=NC(=C2)C3(CC3)[S@](=N)(=O)C)C4=C5C=CNC5=NC=C4 [AZD6738] (first compound max 1 µM, 7x7, partner max 10 µM)	0.568	1	0.849	0.217	0.798	0.675	0.666	0.595	0.931	0.199	0.929	0.516	0.771	0.844	0.911	0.799	0.604	0.731	0.278
